Consider 42 molecules from US20230348450A1, “CARBOXYLIC ACID-CONTAINING COMPOUNDS AS MODULATORS OF BIS-PHOSPHOGLYCERATE MUTASE FOR THE TREATMENT OF SICKLE CELL DISEASE” (Genzyme Corporation, priority 2020, published 2023).

A word on the IC50: it is the concentration that inhibits the measured activity by half. For orientation: EC50 means the concentration that produces a half-maximal response.

For one experiment, the target named is hBPGM (Homo sapiens (Human), UniProt P07738). In words: BPGM Synthase Assay. It is filed as biochemical. Particulars: Table 6 additional results; read-out: huBPGM: synthase Enzyme IC50. An outline of the steps:
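BPGM (5 nM) with GAPDH (0.4 U/mL) was incubated with compound for 30 min at RT in pH 7.4 Tris buffer with 3.23 mM KH2PO4 and 1 mM DTT. Reaction ran 60 min with NAD, 3PG and GAP (substrate solution 2 mM, 20 μM and 800 μM). After koningic acid stop, NADH fluorescence was read, then resorufin from diaphorase/resazurin coupling.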

Experiment [1] addresses human Bisphosphoglycerate mutase (hBPGM) (Homo sapiens (Human), UniProt P07738). In words: BPGM Phosphatase Assay. It is filed as biochemical. To be noted: Table 6 additional results; read-out: huBPGM: phosphatase Enzyme EC50. The method, then:
Solutions of the test compounds were then added to the plate and the DMSO content was normalized across the plate. The plate was incubated at RT for 15 min. Next, the substrate 2,3-BPG (5 μL) was added to all the wells, and the plate was sealed and incubated for 24 hr at RT. After incubation, BIOMOL green dye (40 μL) was added to all the wells, the plate was shaken to mix, and the plate was incubated at RT for 20-30 min.

Chain of human Bisphosphoglycerate mutase (hBPGM) (P07738 whole entry): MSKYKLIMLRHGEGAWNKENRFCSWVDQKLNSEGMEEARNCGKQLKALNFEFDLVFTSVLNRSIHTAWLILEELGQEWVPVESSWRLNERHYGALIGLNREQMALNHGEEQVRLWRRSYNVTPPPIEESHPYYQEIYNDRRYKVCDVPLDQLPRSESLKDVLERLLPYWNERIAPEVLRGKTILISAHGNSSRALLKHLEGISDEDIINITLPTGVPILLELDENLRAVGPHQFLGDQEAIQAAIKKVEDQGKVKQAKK
Chain of hBPGM (P07738 whole entry, looked up): as the sequence (P07738 whole entry) above

For the molecule `Cc1nc(CNC(=O)C2CCNCC2)sc1-c1csc(-c2cc(O)c(C(=O)O)cc2F)n1` [Example 125], on hBPGM, the IC50 was 410 nM. Besides, the EC50 in experiment [1] came to 340 nM.
The corresponding values for `Cc1nc(C)c(-c2csc(-c3cc(O)c(C(=O)O)c(F)c3)n2)s1` [Example 255] are 760 nM and 1800 nM.
The like results for `Cc1nc(CNC(=O)c2cccnn2)sc1-c1csc(-c2cc(O)c(C(=O)O)cc2F)n1` [Example 171] were, in that order, 28 nM and 30 nM.
`Cc1nc(COC2CCCOC2)sc1-c1cccc(-c2cc(C(=O)O)cs2)n1` (stereo not drawn) [Example 49]: the half-inhibitory concentration (IC50) on hBPGM worked out at 350 nM. For the same molecule, the EC50 in experiment [1] was 520 nM.
With `Cc1nc(COc2ccn(C)n2)sc1-c1csc(-c2cc(O)c(C(=O)O)cc2F)n1` [Example 219], the IC50 at hBPGM was 120 nM. Further, in experiment [1], the EC50 was 65 nM.
The like results for `Cc1nc(CNC(=O)C2CC2)sc1-c1cccc(-c2cc(O)c(C(=O)O)cc2F)n1` [Example 236] were, in that order, 130 nM and 360 nM.
Consider `Cc1nc(Cn2c(C#N)cccc2=O)sc1-c1cccc(-c2ccc(C(=O)O)c(O)c2)c1` [Example 103], for which the IC50 on hBPGM turned out to be 950 nM. Further, the half-maximal effective concentration (EC50) in experiment [1] amounted to 130 nM.
The corresponding values for `Cc1nc(CNC(=O)c2ccon2)sc1-c1csc(-c2cc(O)c(C(=O)O)cc2F)n1` [Example 152] are 67 nM and 40 nM.
Regarding `COC(=O)C(=O)NCc1nc(C)c(-c2csc(-c3cc(O)c(C(=O)O)cc3F)n2)s1` [Example 201], the half-inhibitory concentration (IC50) on hBPGM was 110 nM. The concentration giving a half-maximal response (EC50) in experiment [1] amounted to 640 nM.
Turning to `COC(=O)NCc1nc(C)c(-c2csc(-c3cc(O)c(C(=O)O)cc3F)c2)s1` [Example 161], the IC50 on hBPGM is 59 nM. For the same molecule, the concentration giving a half-maximal response (EC50) in experiment [1] worked out at 79 nM.
For `Cc1nc(CNC(=O)C(=O)N(C)C)sc1-c1csc(-c2cc(O)c(C(=O)O)cc2F)n1` [Example 203], the IC50 at hBPGM turned out to be 210 nM. For the same molecule, the half-maximal effective concentration (EC50) in experiment [1] was 980 nM.
Consider `Cc1nc(CNC(=O)C(C)(C)C)sc1-c1csc(-c2cc(O)c(C(=O)O)cc2F)n1` [Example 124], for which the IC50 at hBPGM came to 49 nM. For the same molecule, the EC50 in experiment [1] came out at 50 nM.
The like results for `Cc1nc(CN)sc1-c1csc(-c2cc(O)c(C(=O)O)cc2F)c1` [Example 251] were, in that order, 270 nM and 400 nM.
Take `Cc1nc(C)c(-c2cc(-c3cc(O)c(C(=O)O)cc3F)sn2)s1` [Example 183]: the IC50 at hBPGM was found to be 660 nM. Moreover, in experiment [1], the EC50 amounted to 280 nM.
The corresponding values for `Cc1nc(CNC(=O)OCCN(C)C)sc1-c1csc(-c2cc(O)c(C(=O)O)cc2F)n1` [Example 114] are 150 nM and 170 nM.
The corresponding values for `COC(=O)NCc1nc(C)c(-c2csc(-c3cc(O)c(C(=O)O)cn3)n2)s1` [Example 207] are 280 nM and 340 nM.
The like results for `Cc1nc(CNC(=O)c2cccnn2)sc1-c1cccc(-c2ccc(C(=O)O)c(O)c2)n1` [Example 148] were, in that order, 250 nM and 280 nM.
As for `Cc1nc(COc2ncccn2)sc1-c1cccc(-c2csc(C(=O)O)c2)n1` [Example 79], the concentration for half-maximal inhibition (IC50) at hBPGM was 550 nM. In experiment [1], the 50% effective concentration (EC50) is 110 nM.
The like results for `Cc1nc(COc2ccccn2)sc1-c1cccc(-c2ccc(C(=O)O)cc2)c1` [Example 72] were, in that order, 480 nM and above 25000 nM.
The like results for `Cc1nc(Cc2ccccc2)sc1-c1csc(-c2cc(O)c(C(=O)O)cc2F)n1` [Example 182] were, in that order, 560 nM and 50 nM.
The like results for `Cc1nc(Cc2ccccc2)sc1-c1csc(-c2ccc(C(=O)O)c(O)c2)n1` [Example 280] were, in that order, 330 nM and 140 nM.
Consider `Cc1nc(CNC(=O)c2cccnn2)sc1-c1csc(-c2cc(O)c(C(=O)O)cc2F)n1` [Example 197], for which the concentration for half-maximal inhibition (IC50) on hBPGM came out at 24 nM. Moreover, in experiment [1], the concentration for a half-maximal effect (EC50) is 220 nM.
The like results for `Cc1nc(COC(=O)N2CCCC2)sc1-c1csc(-c2cc(O)c(C(=O)O)cc2F)n1` [Example 154] were, in that order, 170 nM and 40 nM.
The like results for `Cc1nc(Cc2ccccn2)sc1-c1cccc(-c2ccc(C(=O)O)c(O)c2)c1` [Example 282] were, in that order, 750 nM and 110 nM.
With `Cc1nc(CNc2ncccn2)sc1-c1cccc(-c2ccc(C(=O)O)cc2)c1` [Example 80], the IC50 on hBPGM is 220 nM. Also, the half-maximal effective concentration (EC50) in experiment [1] is 1700 nM.
The corresponding values for `COC(=O)NCc1nc(C)c(-c2csc(-c3ccc(C(=O)O)cc3)n2)s1` [Example 239] are 730 nM and above 25000 nM.
The corresponding values for `Cc1nc(COc2ncccn2)sc1-c1cccc(-c2ccc(C(=O)O)cc2)n1` [Example 95] are 280 nM and 2100 nM.
`Cc1nc(COc2cnccn2)sc1-c1csc(-c2cc(O)c(C(=O)O)cc2F)n1` [Example 140]: at hBPGM, the 50% inhibitory concentration (IC50) is 95 nM. Moreover, in experiment [1], the EC50 came out at 30 nM.
The corresponding values for `Cc1nc(CNC2CCC2)sc1-c1csc(-c2cc(O)c(C(=O)O)cc2F)n1` [Example 186] are 380 nM and 30 nM.
The like results for `Cc1nc(CNC(=O)N(C)C)sc1-c1csc(-c2cc(O)c(C(=O)O)cc2F)n1` [Example 226] were, in that order, 56 nM and 110 nM.
The corresponding values for `Cc1nc(CNC(=O)C2CC2)sc1-c1csc(-c2ccc(C(=O)O)c(O)c2)c1` [Example 97] are 100 nM and 160 nM.
As for `Cc1nc(CNC(=O)C(C)(C)N(C)C)sc1-c1csc(-c2cc(O)c(C(=O)O)cc2F)n1` [Example 123], the IC50 on hBPGM came out at 530 nM. Also, the EC50 in experiment [1] worked out at 9700 nM.
For the molecule `Cc1nc(Cc2cccnc2)sc1-c1csc(-c2ccc(C(=O)O)c(O)c2)n1` [Example 250], the IC50 at hBPGM turned out to be 250 nM. The concentration for a half-maximal effect (EC50) in experiment [1] is 290 nM.
With `COC(=O)NCc1nc(C)c(-c2ccnc(-c3cc(O)c(C(=O)O)cc3F)n2)s1` [Example 155], the 50% inhibitory concentration (IC50) on hBPGM came to 310 nM. The EC50 in experiment [1] was above 25000 nM.
For `Cc1nc(C)c(-c2csc(-c3ccc(C(=O)O)c(O)c3F)n2)s1` [Example 240], the 50% inhibitory concentration (IC50) at hBPGM is 2300 nM. Besides, in experiment [1], the concentration for a half-maximal effect (EC50) came to 2500 nM.
Consider `Cc1nc(COc2ccccn2)sc1-c1cccc(-c2ccc(C(=O)O)c(O)c2)n1` [Example 128], for which, on hBPGM, the IC50 was 190 nM. For the same molecule, in experiment [1], the half-maximal effective concentration (EC50) was determined as 79 nM.
The like results for `Cc1nc(C)c(-c2csc(-c3ccc(C(=O)O)c(O)c3)c2)s1` [Example 274] were, in that order, 430 nM and 390 nM.
The like results for `Cc1nc(COc2ccccn2)sc1-c1csc(-c2cc(O)c(C(=O)O)cc2F)c1` [Example 146] were, in that order, 460 nM and 50 nM.
The corresponding values for `COC(=O)NC(C)c1nc(C)c(-c2csc(-c3cc(O)c(C(=O)O)cc3F)n2)s1` (stereo not drawn) [Example 188] are 55 nM and 160 nM.
For `COCCOCCOCCOCCOCC(=O)NCc1nc(C)c(-c2csc(-c3ccc(C(=O)O)c(O)c3)n2)s1` [Example 121], the IC50 on hBPGM is 1800 nM. The EC50 in experiment [1] is 3200 nM.
`COC(=O)NCc1nc(C)c(-c2csc(-c3cc(O)c(C(=O)NCC(=O)NCC(=O)O)cc3F)n2)s1` [Example 119]: the concentration for half-maximal inhibition (IC50) at hBPGM came to 340 nM. The EC50 in experiment [1] was found to be 1800 nM.
The corresponding values for `Cc1nc(CNC2CCOC2)sc1-c1cccc(-c2ccc(C(=O)O)cc2)c1` (stereo not drawn) [Example 50] are above 25000 nM and above 25000 nM.
